One series has as its system cancer of colon HCT116. Nature of the series: MTT assay, HCT116 cells. It counts as cell-based. Conditions: Homo sapiens, HCT-116, aminoguanidine present, mean ± SD of three determinations, max 50 µM tested. The protocol:
(§1) The cytotoxicities of the novel conjugates were assessed in vitro by the MTT assay in the presence of aminoguanidine (an inhibitor of amine oxidase) against three cell lines, human leukemia K562, cancer of colon HCT116 and human normal hepatocyte QSG-7701 [34]. […] Thus, compound 7f was selected for further investigation. Cell lines, K562, 7721 and HCT116 were obtained from American Type Culture Collection (ATCC, Shanghai, China). Cells were cultured in RPMI1640, supplemented with 10% heat-inactivated fetal calf serum (FCS), antibiotics (penicillin, 100 units/mL; streptomycin sulfate, 100 μg/mL) at 37 °C, in an atmosphere of 95% air and 5% CO2 under humidified conditions. Aminoguanidine (1 mM) was added as an inhibitor of amine oxidase derived from FCS and had no effect on the various parameters of the cell measured in this study. In addition, exponentially growing HCT116 or 7721 cells were seeded into 96-well plates at 5000 cells/well and allowed to attach overnight, and then 100 μL of MTT (1 mg/mL) was added. After incubation for 4 h at 37 °C, the MTT solution was removed and the remaining formazan crystals were dissolved with 150 μL DMSO in each well. The absorbance of each well was then read at 570 nm.
On the technique in general: Tetrazolium assays rely on reduction of a dye to a coloured formazan, in cell work by metabolically active cells.

For the next series, the system named is human leukemia K562. Description: MTT assay, K562 cells. The series is classed as cell-based. Conditions: 48 h, aminoguanidine present, mean ± SD of three determinations, max 50 µM tested. The method, then: as §1, with “Chemosensitivity” for “In addition, exponentially growing HCT116 or 7721 cells were seeded into 96-well plates at 5000 cells/well and allowed to attach overnight, and then 100 μL of MTT (1 mg/mL)”, “assessed using the 3-(4,5-dimethylthiazol-2-yl)-2,5-diphenyltetrazolium bromide (MTT) assay. […]” for “added.”, “purple” for “MTT solution was removed and the remaining”, “crystals (i.e., a reduced form of MTT) generated from viable cells” for “crystals”, “by adding 100” for “with 150”, “10% sodium dodecyl sulphate (SDS)” for “DMSO”

Series [1] has as its system human normal hepatocyte QSG-7701. Nature of the series: MTT assay, QSG-7701 cells. The following applies: QSG7701, aminoguanidine present, mean ± SD of three determinations, max 50 µM tested. The series is classed as cell-based. The protocol: as §1

As usually defined, the IC50 is the midpoint of a concentration-inhibition curve. A higher IC50 goes with lower potency. By melting point is commonly meant the temperature of the solid-liquid transition.

Take `CN(C)CCN1C(=O)c2cccc3cc(N)cc(c23)C1=O` [Amonafide, amonafide, reference compound]: the IC50 in the series on cancer of colon HCT116 was found to be 6.86 ± 1.89 µM; in the series on human leukemia K562, 10.1 ± 2.59 µM; in series [1], 20.3 ± 2.43 µM.
Molecule `Cl.Cl.NCCNCCCN1C(=O)c2cccc3cccc(c23)C1=O` [Compound 7a, 2-[3-(2-Aminoethylamino)propyl]1H-benz-[de]isoquinoline-1,3(2H)-dione dihydrochloride] registered a melting point of 233.4 to 235.1 °C. Moreover, in the series with cancer of colon HCT116, half-maximal inhibition (IC50) was put at 19.3 ± 4.39 µM. The same molecule registered an IC50 in the series with human leukemia K562 of 48.8 ± 3.93 µM. In series [1], this molecule had an IC50 of more than 50 µM.
Molecule `Cl.Cl.NCCNCCCCN1C(=O)c2cccc3cccc(c23)C1=O` [Compound 7b, 2-[4-(2-Aminoethylamino)butyl]1H-benz-[de]isoquinoline-1,3(2H)-dione dihydrochloride] showed a melting point of 243.1 to 244.1 °C. In the series with cancer of colon HCT116, this molecule registered an IC50 of 13.9 ± 2.68 µM. Also, the IC50 in the series with human leukemia K562 was found to be 25.6 ± 3.74 µM. Further, in series [1], 33.9 ± 4.32 µM corresponded to half-maximal inhibition (IC50).
Regarding `Cl.Cl.NCCNCCCCCN1C(=O)c2cccc3cccc(c23)C1=O` [Compound 7c, 2-[5-(2-Aminoethylamino)pentyl]1H-benz-[de]isoquinoline-1,3(2H)-dione dihydrochloride], the melting point is 233.8 to 235.1 °C. This molecule came in with an IC50 with cancer of colon HCT116 of 9.89 ± 1.11 µM. For the same molecule, it took 38.8 ± 1.76 µM to reach half-maximal inhibition with human leukemia K562 (IC50). The same molecule returned an IC50 in series [1] of more than 50 µM.
Regarding `Cl.Cl.NCCCNCCCN1C(=O)c2cccc3cccc(c23)C1=O` [Compound 7d, 2-[3-(3-Aminopropylamino)propyl]1H-benz-[de]isoquinoline-1,3(2H)-dione dihydrochloride], the melting point was 233.1 to 234.2 °C. Moreover, half-maximal inhibition in the series with cancer of colon HCT116 (IC50) required 8.95 ± 3.87 µM. In the series on human leukemia K562, this molecule gave an IC50 of 19.7 ± 7.23 µM. The midpoint of inhibition in series [1], the IC50, lay at 8.04 ± 3.35 µM.
On the same counts, the results for `Cl.Cl.NCCCNCCCCCN1C(=O)c2cccc3cccc(c23)C1=O` [Compound 7e, 2-[5-(3-Aminopropylamino)pentyl]1H-benz-[de]isoquinoline-1,3(2H)-dione dihydrochloride] are 238.6 to 239.8 °C, 9.52 ± 3.31 µM, 22.4 ± 1.21 µM and 22.2 ± 0.67 µM.
As to `Cl.Cl.NCCCCNCCCCN1C(=O)c2cccc3cccc(c23)C1=O` [Compound 7g, 2-[4-(4-Aminobutylamino)butyl]1H-benz-[de]isoquinoline-1,3(2H)-dione dihydrochloride], the melting point was in the range of 226.7 to 228.3 °C. For the same molecule, in the series on cancer of colon HCT116, the IC50 amounted to 13.9 ± 2.54 µM. For the same molecule, half-maximal inhibition with human leukemia K562 (IC50) was put at 14 ± 3.32 µM. Moreover, the IC50 in series [1] came out at 12 ± 4.07 µM.
Consider `Cl.Cl.NCCCCNCCCCCN1C(=O)c2cccc3cccc(c23)C1=O` [Compound 7h, 2-[5-(4-Aminobutylamino)pentyl]1H-benz-[de]isoquinoline-1,3(2H)-dione dihydrochloride], for which the melting point lay within 236.6 to 237.9 °C. In the series on cancer of colon HCT116, this molecule gave an IC50 of 16.2 ± 4.28 µM. Besides, in the series on human leukemia K562, it took 15.9 ± 1.53 µM to reach half-maximal inhibition (IC50). Further, the midpoint of inhibition in series [1], the IC50, lay at 18.8 ± 4.94 µM.
`Cl.Cl.NCCCCCCNCCCN1C(=O)c2cccc3cccc(c23)C1=O` [Compound 7i, 2-[3-(6-Aminohexylamino)propyl]1H-benz-[de]isoquinoline-1,3(2H)-dione dihydrochloride] displayed a melting point of 230.6 to 231.8 °C. For the same molecule, the midpoint of inhibition with cancer of colon HCT116, the IC50, lay at 11 ± 1.71 µM. In the series with human leukemia K562, this molecule showed an IC50 of 41.4 ± 1.76 µM. This molecule also yielded an IC50 in series [1] of more than 50 µM.
`Cl.Cl.NCCCCCCNCCCCN1C(=O)c2cccc3cccc(c23)C1=O` [Compound 7j, 2-[4-(6-Aminohexylamino)butyl]1H-benz-[de]isoquinoline-1,3(2H)-dione dihydrochloride] came in with a melting point of 235.9 to 237.2 °C. In the series on cancer of colon HCT116, the midpoint of inhibition, the IC50, lay at 16.4 ± 1.75 µM. In the series on human leukemia K562, the IC50 turned out to be 12.6 ± 0.81 µM. For the same molecule, the IC50 in series [1] came out at 13.1 ± 3.94 µM.
On the same counts, the results for `Cl.Cl.NCCCCCCNCCCCCN1C(=O)c2cccc3cccc(c23)C1=O` [Compound 7k, 2-[5-(6-Aminohexylamino)pentyl]1H-benz-[de]isoquinoline-1,3(2H)-dione dihydrochloride] are 229.1 to 230.3 °C, 9.95 ± 1.81 µM, 15.9 ± 1.83 µM and 14.7 ± 3.91 µM.
